Experimental data: the supplement of paper PMC10307832

Legend:
Test in all cases: relative viability (nuclei count vs DMSO), 5 days (fraction); higher = more cells survive
XMD13-2 + Decitabine = compound: C1CC1C(=O)NC2=NNC3=C2C=CC(=C3)C4=CC(=CC=C4)C(=O)NC5CC5 [XMD13-2] + Nc1ncn([C@H]2C[C@H](O)[C@@H](CO)O2)c(=O)n1 [Decitabine] (partner 2 µM)
Method in brief: (§1)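 Nuclei were stained with Hoechst during a one-step fixation (final 0.05% Triton X-100, 1% formaldehyde, 1 ug/ml Hoechst) carried out 5 days after dosing, then counted on 4× images. The cells, lung cancer lines in 1536-well plates, had been dosed by pin tool the day after seeding with one drug alone or a fixed anchor-drug dose plus five library-drug doses (not always all listed) in √10 steps. Relative viability is the nuclei count in treated wells divided by that in vehicle wells, and each value is the median of duplicate plates.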

ALW-II-49-7 + Navitoclax = compound: Cc1ccc(C(=O)Nc2cccc(C(F)(F)F)c2)cc1Nc1cncc(C(N)=O)c1 [ALW-II-49-7] + CC1(C)CCC(c2ccc(Cl)cc2)=C(CN2CCN(c3ccc(C(=O)NS(=O)(=O)c4ccc(N[C@H](CCN5CCOCC5)CSc5ccccc5)c(S(=O)(=O)C(F)(F)F)c4)cc3)CC2)C1 [Navitoclax] (partner 0.5 µM)
Method in brief: as §1

ALW-II-49-7 + Foretinib = compound: Cc1ccc(C(=O)Nc2cccc(C(F)(F)F)c2)cc1Nc1cncc(C(N)=O)c1 [ALW-II-49-7] + COc1cc2c(Oc3ccc(NC(=O)C4(C(=O)Nc5ccc(F)cc5)CC4)cc3F)ccnc2cc1OCCCN1CCOCC1 [Foretinib] (partner 0.25 µM)
Method in brief: as §1

Dasatinib + Foretinib = compound: Cc1nc(Nc2ncc(C(=O)Nc3c(C)cccc3Cl)s2)cc(N2CCN(CCO)CC2)n1 [Dasatinib] + COc1cc2c(Oc3ccc(NC(=O)C4(C(=O)Nc5ccc(F)cc5)CC4)cc3F)ccnc2cc1OCCCN1CCOCC1 [Foretinib] (partner 0.25 µM)
Method in brief: as §1

Cell Line	relative viability (XMD13-2 + Decitabine; first compound 0.05 µM)	relative viability (XMD13-2 + Decitabine; first compound 0.1581 µM)	relative viability (XMD13-2 + Decitabine; first compound 0.5 µM)	relative viability (XMD13-2 + Decitabine; first compound 5 µM)	relative viability (ALW-II-49-7 + Navitoclax; first compound 0.08 µM)	relative viability (ALW-II-49-7 + Navitoclax; first compound 0.253 µM)	relative viability (ALW-II-49-7 + Navitoclax; first compound 0.8 µM)	relative viability (ALW-II-49-7 + Navitoclax; first compound 2.53 µM)	relative viability (ALW-II-49-7 + Navitoclax; first compound 8 µM)	relative viability (ALW-II-49-7 + Foretinib; first compound 0.08 µM)	relative viability (ALW-II-49-7 + Foretinib; first compound 0.253 µM)	relative viability (ALW-II-49-7 + Foretinib; first compound 0.8 µM)	relative viability (ALW-II-49-7 + Foretinib; first compound 2.53 µM)	relative viability (ALW-II-49-7 + Foretinib; first compound 8 µM)	relative viability (Dasatinib + Foretinib; first compound 0.005 µM)	relative viability (Dasatinib + Foretinib; first compound 0.01581 µM)	relative viability (Dasatinib + Foretinib; first compound 0.05 µM)	relative viability (Dasatinib + Foretinib; first compound 0.1581 µM)	relative viability (Dasatinib + Foretinib; first compound 0.5 µM)	relative viability (XMD13-2 + Decitabine; first compound 1.581 µM)
PC-3 [JPC-3]	0.794	0.892	0.851	0.842	0.693	0.891	0.757	0.816	0.82	0.995	1.09	1.01	1.01	1.02	1.05	1.02	1.05	0.948	0.434	–
SW 1573	0.775	0.464	0.608	0.431	1.01	0.932	1.21	1.11	0.787	0.92	0.729	0.945	1.19	1.02	1.05	0.746	0.783	0.695	0.525	0.498
NCI-H1650	0.363	0.457	0.413	0.52	1.05	1.06	1.32	1.34	1.21	1.04	1.18	1.08	1.05	1.13	0.877	0.64	0.635	0.247	0.262	0.409
COR-L 105	0.747	0.717	0.755	0.638	0.812	0.669	0.767	0.721	0.655	1.02	0.949	0.992	0.99	1.23	0.786	0.955	0.64	0.377	0.264	0.66
LU99A	0.97	0.881	0.945	0.808	0.899	0.838	0.926	0.895	0.779	0.82	0.936	0.92	0.867	0.768	0.849	–	0.723	0.59	0.383	0.857
H3255	0.749	0.72	0.532	0.603	0.581	0.541	0.375	0.313	0.538	1.01	0.827	0.939	1.02	0.703	1.02	0.822	0.726	0.944	0.352	–
NCI-H1734	0.529	0.484	0.561	0.528	0.778	0.954	0.822	0.634	0.665	0.958	0.91	0.871	0.741	0.799	0.743	0.613	0.586	0.427	0.367	0.487
NCI-H1915	0.261	0.268	0.251	0.268	0.771	0.823	0.733	0.764	0.705	1.17	1.07	1.06	0.864	0.816	1.05	0.804	0.957	0.431	0.298	0.256
NCI-H2009	0.372	0.394	0.427	0.387	1.1	1.16	1.12	0.904	0.983	1.18	1.31	1.17	0.895	1.11	1.15	0.984	0.925	0.882	0.216	0.449
NCI-H1651	0.642	0.642	0.63	0.81	1.09	0.969	1.13	0.921	1.06	0.989	0.631	0.953	0.678	0.852	0.81	0.666	0.673	0.646	0.445	0.609
HOP-62	0.233	0.204	0.195	0.199	1.03	0.866	1.02	0.485	0.67	1.22	1.14	1.17	0.935	0.837	1.18	1.12	1	0.518	0.197	0.203
NCI-H3122	0.403	0.439	0.414	0.395	1.06	1.06	1.07	1.09	1.05	1.06	0.978	0.96	1.03	0.931	0.932	0.871	0.955	0.942	0.567	0.372
NCI-H1395	0.845	0.738	0.753	0.706	1.28	1.16	1.01	0.307	1.22	1.09	1.03	1	1.03	0.943	1	1.08	1.04	0.585	0.331	0.661
PC-14	0.239	0.229	0.188	0.254	1.04	0.92	0.923	0.911	0.86	0.935	0.634	0.841	0.924	0.89	0.981	0.948	0.912	0.712	0.335	0.193
BEN	0.803	0.705	0.719	0.705	0.111	0.0965	0.0694	–	0.0797	0.829	0.756	0.768	0.752	0.692	0.682	0.513	0.35	0.366	0.291	0.648
EPLC-272H	0.363	0.391	0.485	0.314	1.16	1.03	1.04	1.06	1.19	0.665	–	0.712	0.643	0.917	0.769	0.631	0.634	0.214	0.127	0.339
